Consider 16 compounds from US8530465B2, “1, 2-disubstituted amido-anthraquinone derivatives, preparation method and application thereof” (National Defense Medical Center, priority 2010, dated 2013).

One series concerns hTERT. Kind of series: Secreted alkaline phosphatase (SEAP) assay, PhTERT-SEAP (H1299). To be noted: Homo sapiens, 24 hours; for activity at 1 µM: NCI-H1299, Conc. 1 μM, read-out: Relative SEAP activity (%); for activity at 10 µM: NCI-H1299, Conc. 10 μM; for activity at 10 µM / activity at 100 µM: read-out: Relative SEAP activity (%) (converted); for activity at 100 µM: NCI-H1299, Conc. 100 μM. It is filed as cell-based. How it is done:
H1299 were grown in RPMI 1640 media supplemented with 10% fetal bovine serum, 100 units/mL penicillin and […] streptomycin in a humidified atmosphere with 5% CO2 at 37° C. Culture media were changed every three days. To establish stable cell lines that the expression of hTERT could be monitored by a reporter system, a about 3.3 kbp DNA fragment ranging from −3338 to +1 bp of the hTERT gene (hTERT promoter, PhTERT) was subcloned upstream to a secreted alkaline phosphatase gene (SEAP) and transfected into H1299 by electroporation. The stable clones were selected using G418. The stable clones derived from H1299 were cultured using conditions that are similar to their parental cells.
Secreted alkaline phosphatase was used as the reporter system to monitor the transcriptional activity of hTERT. Here, about 10^4 cells each were grown in 96-well plates and incubated at 37° C. for 24 hours and changed with fresh media. Varying amounts of drugs were added and cells were incubated for another 24 hours. Culture media were collected and heated at 65° C. for 10 min to inactivate heat-labile phosphatases. An equal amount of SEAP buffer (2 M diethanolamine, 1 mM MgCl2, and 20 mM L-homoarginine) was added to the media and p-nitrophenyl phosphate was added to a final concentration of 12 mM. Absorptions at 405 nm were taken, and the rate of absorption increase is determined (the increasing rate of absorbance at 405 nm was used to represent the activity of SEAP).

Series [1] can be described thus: MTT assay, PhTERT-SEAP (H1299). It is filed as cell-based, human. Particulars: human, H1299 cells carrying the PhTERT-SEAP reporter, PhTERT-SEAP (H1299); for viability at 1 μM: Conc. 1 μM, read-out: Relative MTT viability (%); for viability at 10 μM: Conc. 10 μM; for viability at 10 μM / viability at 100 μM: read-out: Relative MTT viability (%) (converted); for viability at 100 μM: Conc. 100 μM. As to the method: Further, cells were subjected to MTT assay to compare the relative toxicity or effect of each compound on cell proliferation and activity.
The above-described cells are cultured in a 96-well plate, to which was added with 25 μl MTT solution, and cultured in a 37° C. carbon dioxide incubator for 4 hours. Then, 100 μl Lysis buffer is added and incubated in a 37° C. carbon dioxide incubator overnight. An ELISA reader (Bio-Rad Model 450) is used to read optical density (O.D.) at 550 nm.
In general terms: Tetrazolium dyes change colour on reduction, which living cells bring about.

Consider `O=C(CCl)Nc1ccc2c(c1NC(=O)Cc1ccc(F)cc1)C(=O)c1ccccc1C2=O` [CC-24, 1-[2-(4-fluorophenyl)acetylamino]-2-(chloroacetamido)-anthraquinone], for which the melting point (in general, the temperature of the solid-liquid transition) is 213 to 214 °C. Besides, in the series on hTERT, the activity at 1 µM is 93.1 ± 5.96%, the activity at 10 µM was 8.4% and the activity at 100 µM was 1.75%. Moreover, in series [1], the viability – broadly, a read-out of living cells in per cent, often relative to untreated cells – at 1 μM came out at 88.9 ± 5.07%; the viability at 10 μM was 7.31%; the viability at 100 μM was 6.17%.
As for `O=C(CCl)Nc1ccc2c(c1NC(=O)C1CC1)C(=O)c1ccccc1C2=O` [CC-25, 1-[(cyclopropanecarbonyl)amino]-2-(chloroacetamido)-anthraquinone], the melting point was in the range of 191 to 192 °C. In addition, in the series on hTERT, the activity at 1 µM stood at 83.8 ± 2.67%, the activity at 10 µM is 3.46% and the activity at 100 µM is 1.38%. Further, in series [1], the viability at 1 μM is 88.7 ± 3.92%.
On to `O=C(CCl)Nc1ccc2c(c1NC(=O)C1CCCCC1)C(=O)c1ccccc1C2=O` [CC-26, 1-[(cyclohexanecarbonyl)amino]-2-(chloroacetamido)-anthraquinone], for which the melting point is 216 to 217 °C. Further, in the series with hTERT, the activity at 1 µM was determined as 82.5 ± 4.53%, the activity at 10 µM was 3.07% and the activity at 100 µM was 1.76%. In addition, in series [1], the viability at 1 μM amounted to 82.3 ± 4.4% and the viability at 10 μM is 1.54%.
Consider `O=C(CCl)Nc1ccc2c(c1NC(=O)c1ccco1)C(=O)c1ccccc1C2=O` [CC-27, 1-[(2-furoyl)amino]-2-(chloroacetamido)-anthraquinone], for which the melting point was in the range of 211 to 212 °C. Further, in the series on hTERT, the activity at 1 µM stood at 84.7 ± 23.3%, the activity at 10 µM was 2.94% and the activity at 100 µM was 2.62%. Further, the viability at 1 μM in series [1] came out at 80.4 ± 3.56%.
As to `O=C(CCl)Nc1ccc2c(c1NC(=O)c1ccno1)C(=O)c1ccccc1C2=O` [CC-29, 1-[(5-isoxazolecarbonyl)amino]-2-(chloroacetamido)-anthraquinone], the melting point lay in the range of 212 to 213 °C. For the same compound, in the series with hTERT, the activity at 1 µM is 92.5 ± 0.99%, the activity at 10 µM is 4.91% and the activity at 100 µM is 1.35%. Further, in series [1], the viability at 1 μM turned out to be 105 ± 7.19%, the viability at 10 μM is 3.47% and the viability at 100 μM was 0.11%.
The compound `Cc1cc(C(=O)Nc2c(NC(=O)CCl)ccc3c2C(=O)c2ccccc2C3=O)c(C)o1` [CC-30, 1-[(2,5-dimethyl-3-furoyl)amino]-2-(chloroacetamido)-anthraquinone] yielded a melting point of 207 to 208 °C. In the series with hTERT, the activity at 1 µM was found to be 81.2 ± 1.85%, the activity at 10 µM was 2.37% and the activity at 100 µM was 0.83%. Moreover, in series [1], the viability at 1 μM amounted to 96 ± 2.27% and the viability at 10 μM was 2.93%.
Compound `O=C(CCl)Nc1ccc2c(c1NC(=O)COc1ccccc1)C(=O)c1ccccc1C2=O` [CC-31, 1-[2-(phenoxy)acetylamino]-2-(chloroacetamido)-anthraquinone] had a melting point of 217 to 218 °C. In the series on hTERT, the activity at 1 µM stood at 83 ± 1.98%, the activity at 10 µM was 72.9% and the activity at 100 µM is 4.7%. In addition, in series [1], the viability at 1 μM came out at 101 ± 4.91%, the viability at 10 μM is 66.5% and the viability at 100 μM was 4.86%.
With `O=C(CCl)Nc1ccc2c(c1NC(=O)CSc1ccccc1)C(=O)c1ccccc1C2=O` [CC-32, 1-[2-(phenylsulfanyl)acetylamino]-2-(chloroacetamido)-anthraquinone], the melting point was in the range of 161 to 162 °C. In addition, in the series on hTERT, the activity at 1 µM worked out at 80 ± 4.39%, the activity at 10 µM is 3.89% and the activity at 100 µM was -0.05%. For the same compound, in series [1], the viability at 1 μM was 88.5 ± 2.25% and the viability at 10 μM is 5.73%.
`O=C(CN1CCN(c2ccccc2F)CC1)Nc1ccc2c(c1NC(=O)c1ccccc1)C(=O)c1ccccc1C2=O` [CC-34, 1-(benzamido)-2-[2-[4-(2-fluorophenyl)piperazino]acetylamino]-anthraquinone] came in with a melting point of 228 to 229 °C. Moreover, in the series on hTERT, the activity at 1 µM was 98.7 ± 2.55%, the activity at 10 µM was 79.6 ± 1.35% and the activity at 100 µM is 15.6 ± 1.54%. Moreover, in series [1], the viability at 1 μM turned out to be 98.6 ± 2.29%, the viability at 10 μM is 92.3 ± 2.41% and the viability at 100 μM is 27.8 ± 4.82%.
In turn, `Cc1ccc(C(=O)Nc2c(NC(=O)CN(C)C)ccc3c2C(=O)c2ccccc2C3=O)cc1` [CC-35, 1-(4-methylbenzamido)-2-[2-(dimethylamino)acetylamino]-anthraquinone] came in with a melting point of 190 to 191 °C. Besides, in the series with hTERT, the activity at 1 µM was determined as 99.5 ± 3.37%, the activity at 10 µM was 78.5% and the activity at 100 µM was 9.61%. In series [1], the viability at 1 μM came to 107 ± 2.85% and the viability at 10 μM was 88.4%.
`Cc1ccc(C(=O)Nc2c(NC(=O)CN(C)CC3OCCO3)ccc3c2C(=O)c2ccccc2C3=O)cc1` [CC-36, 1-(4-methylbenzamido)-2-[2-[(1,3-dioxolan-2-ylmethyl)(methyl)amino]acetylamino]-anthraquinone]: the melting point lay in the range of 156 to 157 °C. For the same compound, in the series on hTERT, the activity at 1 µM is 101 ± 3.01%, the activity at 10 µM was 76.5% and the activity at 100 µM was 10.2%. In series [1], the viability at 1 μM turned out to be 104 ± 2.12%, the viability at 10 μM is 88.6% and the viability at 100 μM is 3.78%.
Compound `Cc1ccc(C(=O)Nc2c(NC(=O)CN(C)CCc3ccccn3)ccc3c2C(=O)c2ccccc2C3=O)cc1` [CC-37, 4-methyl-N-(2-(2-(methyl(2-(pyridin-2-yl)ethyl)amino)acetamido)-9,10-dioxo-9,10-dihydroanthracen-1-yl)benzamide] returned a melting point of 166 to 167 °C. Also, in the series with hTERT, the activity at 1 µM is 90.6 ± 1.48%, the activity at 10 µM is 11.9% and the activity at 100 µM is 1.47%. Also, in series [1], the viability at 1 μM is 94.9 ± 6.49%, the viability at 10 μM was 46.2% and the viability at 100 μM was 22%.
With `Cc1ccc(C(=O)Nc2c(NC(=O)CN3CCCCC3)ccc3c2C(=O)c2ccccc2C3=O)cc1` [CC-39, N-(9,10-dioxo-2-(2-(piperidin-1-yl)acetamido)-9,10-dihydroanthracen-1-yl)-4-methylbenzamide], the melting point lay within 213 to 214 °C. Also, in the series with hTERT, the activity at 1 µM was found to be 85.4 ± 7.56%, the activity at 10 µM was 70.1% and the activity at 100 µM is 8.3%. In addition, in series [1], the viability at 1 μM was 86.3 ± 6.52%, the viability at 10 μM is 70.2% and the viability at 100 μM is 10.8%.
For `Cc1ccc(C(=O)Nc2c(NC(=O)CN3CCC4(CC3)OCCO4)ccc3c2C(=O)c2ccccc2C3=O)cc1` [CC-40, 1-(4-methylbenzamido)-2-[2-(1,4-dioxa-8-azaspiro[4.5]dec-8-yl)acetylamino]-anthraquinone], the melting point was in the range of 197 to 198 °C. Moreover, in the series on hTERT, the activity at 1 µM came to 78.9 ± 3.67%, the activity at 10 µM was 51.6% and the activity at 100 µM was 6.67%. Moreover, in series [1], the viability at 1 μM is 74.3 ± 6.15%, the viability at 10 μM is 55.5% and the viability at 100 μM is 16.8%.
With `Cc1ccc(C(=O)Nc2c(NC(=O)CN3CCOCC3)ccc3c2C(=O)c2ccccc2C3=O)cc1` [CC-41, 1-(4-methylbenzamido)-2-[(2-morpholinoacetyl)amino]-anthraquinone], the melting point was in the range of 225 to 226 °C. Further, in the series with hTERT, the activity at 1 µM is 98.37 ± 0.9%, the activity at 10 µM is 54.2% and the activity at 100 µM is 3.75%. In addition, in series [1], the viability at 1 μM amounted to 81.5 ± 6.24%, the viability at 10 μM is 56.7% and the viability at 100 μM was 15.5%.
Turning to `Cc1ccc(C(=O)Nc2c(NC(=O)CN3CCSCC3)ccc3c2C(=O)c2ccccc2C3=O)cc1` [CC-42, 1-(4-methylbenzamido)-2-[2-(1,4-thiazinan-4-yl)acetylamino]-anthraquinone], the melting point was 210 to 211 °C. In the series with hTERT, the activity at 1 µM worked out at 88 ± 1.2%, the activity at 10 µM is 72.6% and the activity at 100 µM is 12.2%. In addition, in series [1], the viability at 1 μM is 85.8 ± 7.69%, the viability at 10 μM is 70% and the viability at 100 μM was 20%.
